Measured values: patent EP4722207A1, “OXOISOINDOLINYL-SUBSTITUTED TETRAHYDROPYRIMIDINEDIONE DERIVATIVE AND USE THEREOF” (Gluetacs Therapeutics (Shanghai) Co., Ltd., priority 2023, dated 2024)

Key:
MV-4-11 = test: Cell viability assay (CellTiter-Meiluncell Luminescent), tumor cell proliferation, MV-4-11; settings: Homo sapiens, MV4-11, 96 h; for inhibition at 0.01 µM: read-out: Inhibition Rate at 10 nM (%); for inhibition at 0.5 µM: read-out: Inhibition Rate at 500 nM (%); for IC50: read-out: inhibitory activity (IC50, nM) against tumor cells proliferation, MV-4-11
IKZF2 = biological target: T1, IKZF2 (Homo sapiens, UniProt Q96SW2+Q9UKS7); test: Western-blot assay, substrate protein degradation in hPBMCs: IKZF2; assay type: cell-based; settings: for substrate protein remaining % IKZF2: 24 hours of compound treatment, 50 nM and 500 nM
T1 construct: effects of the compounds of the present disclosure on the expression of target proteins in cells; endogenous in cells; host or cells: human PBMCs (hPBMCs)
T1 sequence (Q9UKS7 whole entry): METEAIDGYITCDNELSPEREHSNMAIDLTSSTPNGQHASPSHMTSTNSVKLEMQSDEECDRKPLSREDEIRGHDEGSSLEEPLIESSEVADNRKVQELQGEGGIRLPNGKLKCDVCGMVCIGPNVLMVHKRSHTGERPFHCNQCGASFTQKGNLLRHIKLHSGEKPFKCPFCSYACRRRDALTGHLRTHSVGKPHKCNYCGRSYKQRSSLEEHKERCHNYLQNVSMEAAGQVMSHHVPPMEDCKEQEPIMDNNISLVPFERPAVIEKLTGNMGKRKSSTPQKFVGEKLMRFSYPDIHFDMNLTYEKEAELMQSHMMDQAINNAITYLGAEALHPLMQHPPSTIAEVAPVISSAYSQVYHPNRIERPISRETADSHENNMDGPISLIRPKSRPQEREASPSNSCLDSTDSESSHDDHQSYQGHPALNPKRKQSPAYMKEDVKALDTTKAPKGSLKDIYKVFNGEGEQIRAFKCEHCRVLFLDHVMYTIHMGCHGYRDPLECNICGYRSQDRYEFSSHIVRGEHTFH
T1 sequence (Q96SW2 whole entry): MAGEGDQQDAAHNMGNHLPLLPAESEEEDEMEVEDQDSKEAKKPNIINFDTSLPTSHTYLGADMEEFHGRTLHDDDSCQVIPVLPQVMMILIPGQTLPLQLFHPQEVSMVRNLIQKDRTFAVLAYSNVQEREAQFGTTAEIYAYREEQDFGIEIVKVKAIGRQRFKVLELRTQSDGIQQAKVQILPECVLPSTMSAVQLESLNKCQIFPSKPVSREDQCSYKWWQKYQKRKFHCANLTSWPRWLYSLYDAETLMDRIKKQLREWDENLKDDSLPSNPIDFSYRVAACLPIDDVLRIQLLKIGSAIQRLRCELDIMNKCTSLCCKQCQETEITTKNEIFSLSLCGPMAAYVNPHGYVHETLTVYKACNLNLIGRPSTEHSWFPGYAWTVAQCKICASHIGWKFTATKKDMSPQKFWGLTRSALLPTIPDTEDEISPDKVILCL
T1 sequence (Q16531 whole entry partner): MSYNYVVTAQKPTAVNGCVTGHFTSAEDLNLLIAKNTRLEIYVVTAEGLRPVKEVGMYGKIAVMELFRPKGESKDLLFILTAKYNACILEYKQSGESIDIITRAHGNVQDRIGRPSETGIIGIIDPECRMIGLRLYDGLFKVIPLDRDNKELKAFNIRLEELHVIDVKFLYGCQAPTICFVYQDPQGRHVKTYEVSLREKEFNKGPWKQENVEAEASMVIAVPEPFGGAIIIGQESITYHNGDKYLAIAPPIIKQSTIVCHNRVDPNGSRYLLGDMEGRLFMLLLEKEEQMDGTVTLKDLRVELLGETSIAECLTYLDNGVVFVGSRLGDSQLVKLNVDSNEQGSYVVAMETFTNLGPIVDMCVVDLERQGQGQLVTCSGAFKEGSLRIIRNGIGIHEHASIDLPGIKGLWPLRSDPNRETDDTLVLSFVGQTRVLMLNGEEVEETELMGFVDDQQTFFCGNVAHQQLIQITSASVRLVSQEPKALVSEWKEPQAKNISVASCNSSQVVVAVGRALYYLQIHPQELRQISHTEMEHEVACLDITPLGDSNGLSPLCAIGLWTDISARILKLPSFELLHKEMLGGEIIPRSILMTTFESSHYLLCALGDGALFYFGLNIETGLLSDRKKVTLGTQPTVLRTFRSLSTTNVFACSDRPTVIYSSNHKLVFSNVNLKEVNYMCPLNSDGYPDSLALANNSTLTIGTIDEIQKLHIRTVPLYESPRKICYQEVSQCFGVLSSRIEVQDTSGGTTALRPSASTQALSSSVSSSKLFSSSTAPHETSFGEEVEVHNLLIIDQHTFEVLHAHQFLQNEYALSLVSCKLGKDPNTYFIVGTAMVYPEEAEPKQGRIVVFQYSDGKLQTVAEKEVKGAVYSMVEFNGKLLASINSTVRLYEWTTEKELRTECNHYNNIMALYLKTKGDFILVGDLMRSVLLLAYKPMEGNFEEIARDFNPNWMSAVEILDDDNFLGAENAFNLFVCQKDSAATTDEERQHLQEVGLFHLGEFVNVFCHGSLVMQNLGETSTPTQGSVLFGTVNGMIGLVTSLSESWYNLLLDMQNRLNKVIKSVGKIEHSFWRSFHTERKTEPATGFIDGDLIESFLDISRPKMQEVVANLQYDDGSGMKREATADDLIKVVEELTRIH

IKZF1 = biological target: T2, IKZF1 (Homo sapiens, UniProt Q13422+Q96SW2); test: Western-blot assay, substrate protein degradation in hPBMCs: IKZF1; assay type: cell-based; settings: for substrate protein remaining % IKZF1: 24 hours of compound treatment, 50 nM and 500 nM
T2 construct: effects of the compounds of the present disclosure on the expression of target proteins in cells; endogenous in cells; host or cells: human PBMCs (hPBMCs)
T2 sequence (Q13422 whole entry): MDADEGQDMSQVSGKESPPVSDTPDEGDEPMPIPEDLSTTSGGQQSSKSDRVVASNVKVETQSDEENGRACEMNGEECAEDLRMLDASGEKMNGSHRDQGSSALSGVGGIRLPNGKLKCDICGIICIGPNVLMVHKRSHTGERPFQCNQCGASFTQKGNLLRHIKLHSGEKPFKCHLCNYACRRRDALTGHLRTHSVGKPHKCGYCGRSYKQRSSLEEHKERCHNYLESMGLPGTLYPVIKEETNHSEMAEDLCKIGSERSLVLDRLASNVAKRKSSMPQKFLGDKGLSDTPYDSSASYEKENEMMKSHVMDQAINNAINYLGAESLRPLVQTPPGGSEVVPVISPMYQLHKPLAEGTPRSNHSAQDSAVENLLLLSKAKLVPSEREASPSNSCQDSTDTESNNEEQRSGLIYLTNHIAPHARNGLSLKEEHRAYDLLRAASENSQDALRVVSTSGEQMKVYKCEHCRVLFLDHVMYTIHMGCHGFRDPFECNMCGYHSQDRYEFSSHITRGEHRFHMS
T2 sequence (Q96SW2 whole entry): as the sequence (Q96SW2 whole entry) above
T2 sequence (Q16531 whole entry partner): as the sequence (Q16531 whole entry partner) above

IKZF3 = biological target: T3, IKZF3 (Homo sapiens, UniProt Q96SW2+Q9UKT9); test: Western-blot assay, substrate protein degradation in hPBMCs: IKZF3; assay type: cell-based; settings: for substrate protein remaining % IKZF3: 24 hours of compound treatment, 50 nM and 500 nM
T3 construct: effects of the compounds of the present disclosure on the expression of target proteins in cells; endogenous in cells; host or cells: human PBMCs (hPBMCs)

WEE1 = biological target: T4, WEE1 (Homo sapiens, UniProt P30291+Q96SW2); test: Western-blot assay, substrate protein degradation in hPBMCs: WEE1; assay type: cell-based; settings: for substrate protein remaining % WEE1: 24 hours of compound treatment, 50 nM and 500 nM
T4 construct: effects of the compounds of the present disclosure on the expression of target proteins in cells; endogenous in cells; host or cells: human PBMCs (hPBMCs)
T4 sequence (P30291 whole entry): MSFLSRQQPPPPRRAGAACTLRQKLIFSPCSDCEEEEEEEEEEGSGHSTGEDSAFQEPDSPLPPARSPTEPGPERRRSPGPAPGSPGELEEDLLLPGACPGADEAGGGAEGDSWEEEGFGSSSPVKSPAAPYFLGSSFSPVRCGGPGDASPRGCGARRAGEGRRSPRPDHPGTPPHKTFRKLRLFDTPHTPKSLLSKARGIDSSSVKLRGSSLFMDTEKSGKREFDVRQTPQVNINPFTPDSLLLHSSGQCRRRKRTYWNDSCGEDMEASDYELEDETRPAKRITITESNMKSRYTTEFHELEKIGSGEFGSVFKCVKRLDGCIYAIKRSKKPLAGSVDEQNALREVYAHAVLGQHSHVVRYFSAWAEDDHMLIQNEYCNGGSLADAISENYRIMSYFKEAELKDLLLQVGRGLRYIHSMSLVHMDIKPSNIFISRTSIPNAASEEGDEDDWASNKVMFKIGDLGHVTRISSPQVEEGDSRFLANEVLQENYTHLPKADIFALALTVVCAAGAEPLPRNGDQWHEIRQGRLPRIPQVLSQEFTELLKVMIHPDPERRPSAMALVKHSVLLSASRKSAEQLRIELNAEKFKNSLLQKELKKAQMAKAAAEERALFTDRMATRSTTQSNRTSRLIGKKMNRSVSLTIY
T4 sequence (Q96SW2 whole entry): as the sequence (Q96SW2 whole entry) above
T4 sequence (Q16531 whole entry partner): as the sequence (Q16531 whole entry partner) above

CK1α = biological target: T5, CK1α (Homo sapiens, UniProt P48729+Q96SW2); test: Western-blot assay, substrate protein degradation in hPBMCs: CK1α; assay type: cell-based; settings: for substrate protein remaining % CK1α: 24 hours of compound treatment, 50 nM and 500 nM
T5 construct: effects of the compounds of the present disclosure on the expression of target proteins in cells; endogenous in cells; host or cells: human PBMCs (hPBMCs)
T5 sequence (P48729 whole entry): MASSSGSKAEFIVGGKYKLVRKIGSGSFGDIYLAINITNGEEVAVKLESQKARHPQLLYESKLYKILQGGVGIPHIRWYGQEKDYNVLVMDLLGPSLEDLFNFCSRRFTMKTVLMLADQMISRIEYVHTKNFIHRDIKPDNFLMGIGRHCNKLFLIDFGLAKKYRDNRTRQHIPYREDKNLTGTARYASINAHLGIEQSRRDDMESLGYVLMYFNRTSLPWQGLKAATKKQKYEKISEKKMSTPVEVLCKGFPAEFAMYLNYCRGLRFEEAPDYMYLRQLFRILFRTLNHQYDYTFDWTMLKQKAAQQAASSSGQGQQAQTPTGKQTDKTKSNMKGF
T5 sequence (Q96SW2 whole entry): as the sequence (Q96SW2 whole entry) above
T5 sequence (Q16531 whole entry partner): as the sequence (Q16531 whole entry partner) above

GSPT1 = biological target: T6, GSPT1 (Homo sapiens, UniProt P15170+Q96SW2); test: Western-blot assay, substrate protein degradation in hPBMCs: GSPT1; assay type: cell-based; settings: for substrate protein remaining % GSPT1: 24 hours of compound treatment, 50 nM and 500 nM
T6 construct: effects of the compounds of the present disclosure on the expression of target proteins in cells; endogenous in cells; host or cells: human PBMCs (hPBMCs)
T6 sequence (P15170 whole entry): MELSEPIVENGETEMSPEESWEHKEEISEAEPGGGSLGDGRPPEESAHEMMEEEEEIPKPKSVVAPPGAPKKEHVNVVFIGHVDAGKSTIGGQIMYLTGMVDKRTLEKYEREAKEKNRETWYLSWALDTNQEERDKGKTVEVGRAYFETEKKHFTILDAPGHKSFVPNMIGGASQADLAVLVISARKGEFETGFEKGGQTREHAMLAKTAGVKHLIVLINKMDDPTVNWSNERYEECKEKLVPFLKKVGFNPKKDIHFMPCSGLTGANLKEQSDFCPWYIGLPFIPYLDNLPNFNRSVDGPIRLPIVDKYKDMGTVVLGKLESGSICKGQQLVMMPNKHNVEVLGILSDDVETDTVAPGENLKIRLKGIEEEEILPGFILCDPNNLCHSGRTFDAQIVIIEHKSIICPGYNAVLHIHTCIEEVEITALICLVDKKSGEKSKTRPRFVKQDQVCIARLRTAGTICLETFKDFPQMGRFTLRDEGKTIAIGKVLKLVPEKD
T6 sequence (Q96SW2 whole entry): as the sequence (Q96SW2 whole entry) above
T6 sequence (Q16531 whole entry partner): as the sequence (Q16531 whole entry partner) above

H292 = test: Cell viability assay (CellTiter-Meiluncell Luminescent), tumor cell proliferation, H292; settings: Homo sapiens, NCI-H292, 96 h; for inhibition at 0.01 µM: read-out: Inhibition Rate at 10 nM (%); for inhibition at 0.5 µM: read-out: Inhibition Rate at 500 nM (%)
Protocol: The tumor cells used herein were cultured in a cell culture medium listed in table 2 at 37°C in an incubator with 5% CO2. Prior to experimentation, all cell lines used were correctly identified by STR profiling, and tested negative for mycoplasma contamination using a mycoplasma detection kit through routine screenings.
On the following day, the test compounds of the present disclosure were subjected to serial dilution. […] Subsequently, 0.5 µL of the test compound dilution was transferred into the 96-well plate containing the cells, with each well containing 100 µL of cell culture medium. […] Into the 96-well plate, the diluted test compounds and corresponding detection reagents were added, resulting in final test compound concentrations of 500 nM and 10 nM, respectively. The experimental procedure is described below using the diluted 2 µM test compound as an example.
After the cells were treated with the compounds of the present disclosure for a specified period, the cell viability assay reagent was added to the culture medium according to the kit's instructions to determine cell viability. […] All controls were treated using the same procedure as the compounds of the present disclosure. The growth inhibition curves for the compounds of the present disclosure were plotted using Prism GraphPad software, and the IC50 values were calculated therefrom.

[1] = compounds at 50 nM and 500 nM, 24 hours

CC1(C)CCC(CN2C3CCC2CN(Cc2ccc4c(c2)C(=O)N(N2CCC(=O)NC2=O)C4=O)C3)=C(c2ccc(Cl)cc2)C1 [GT-07887, 5-((8-((4'-chloro-5,5-dimethyl-3,4,5,6-tetrahydro-[1,1'-biphenyl]-2-yl)methyl)-3,8-diazabicyclo[3.2.1]octan-3-yl)methyl)-2-(2,4-dioxotetrahydropyrimidin-1(2H)-yl)isoindoline-1,3-dione]
inhibition at 0.01 µM (MV-4-11): 25 to 30%
inhibition at 0.5 µM (MV-4-11): 30 to 40%

Cc1cc2c(N3CCN(Cc4ccc5c(c4)C(=O)N(N4CCC(=O)NC4=O)C5=O)CC3)ncnc2s1 [GT-08092, 2-(2,4-dioxotetrahydropyrimidin-1(2H)-yl)-5-((4-(6-methylthieno[2,3-d]pyrimidin-4-yl)piperazin-1-yl)methyl)isoindoline-1,3-dione]
inhibition at 0.01 µM (MV-4-11): 10 to 18%
inhibition at 0.5 µM (MV-4-11): 30 to 40%
substrate protein remaining % IKZF2 (IKZF2): B (80%< substrate protein remaining %≤ 100%)
substrate protein remaining % IKZF1 (IKZF1): B (80%< substrate protein remaining %≤ 100%)
substrate protein remaining % IKZF3 (IKZF3): B (80%< substrate protein remaining %≤ 100%)
substrate protein remaining % WEE1 (WEE1): A (0% ≤ substrate protein remaining % ≤ 80%)
substrate protein remaining % CK1α (CK1α): A (0% ≤ substrate protein remaining % ≤ 80%)
substrate protein remaining % GSPT1 (GSPT1): A (0% ≤ substrate protein remaining % ≤ 80%)

O=C1CCN(N2Cc3cc(CN4CCN(c5ccccc5Cl)CC4)ccc3C2=O)C(=O)N1 [GT-06703, 1-(5-((4-(2-chlorophenyl)piperazin-1-yl)methyl)-1-oxoisoindolin-2-yl)dihydropyrimidine-2,4(1H,3H)-dione]
IC50 (MV-4-11): 500 to 1000 nM
IKZF2 substrate protein remaining % (IKZF2; [1]): B ("B" is defined as 80%< substrate protein remaining %≤ 100%)
IKZF1 substrate protein remaining % (IKZF1; [1]): B ("B" is defined as 80%< substrate protein remaining %≤ 100%)
IKZF3 substrate protein remaining % (IKZF3; [1]): B ("B" is defined as 80%< substrate protein remaining %≤ 100%)
WEE1 substrate protein remaining % (WEE1; [1]): B ("B" is defined as 80%< substrate protein remaining %≤ 100%)
CK1α substrate protein remaining % (CK1α; [1]): A ("A" is defined as 0% ≤ substrate protein remaining % ≤ 80%)
GSPT1 substrate protein remaining % (GSPT1; [1]): A ("A" is defined as 0% ≤ substrate protein remaining % ≤ 80%)

Cc1sc2ncnc(N3CCCN(Cc4ccc5c(c4)C(=O)N(N4CCC(=O)NC4=O)C5=O)CC3)c2c1C [GT-08095, 5-((4-(5,6-dimethylthieno[2,3-d]pyrimidin-4-yl)-1,4-diazepan-1-yl)methyl)-2-(2,4-dioxotetrahydropyrimidin-1(2H)-yl)isoindoline-1,3-dione]
inhibition at 0.01 µM (MV-4-11): 25 to 30%
inhibition at 0.5 µM (MV-4-11): 18 to 25%
substrate protein remaining % IKZF2 (IKZF2): B (80%< substrate protein remaining %≤ 100%)
substrate protein remaining % IKZF1 (IKZF1): B (80%< substrate protein remaining %≤ 100%)
substrate protein remaining % IKZF3 (IKZF3): B (80%< substrate protein remaining %≤ 100%)
substrate protein remaining % WEE1 (WEE1): A (0% ≤ substrate protein remaining % ≤ 80%)
substrate protein remaining % CK1α (CK1α): A (0% ≤ substrate protein remaining % ≤ 80%)
substrate protein remaining % GSPT1 (GSPT1): B (80%< substrate protein remaining %≤ 100%)

O=C1CCN(N2Cc3cc(CN4CCN(c5ccc(C(F)(F)F)cc5)CC4)ccc3C2=O)C(=O)N1 [GT-06700, 1-(1-oxo-5-((4-(4-(trifluoromethyl)phenyl)piperazin-1-yl)methyl)isoindolin-2-yl)dihydropyrimidine-2,4(1H,3H)-dione]
IC50 (MV-4-11): 50 to 100 nM

O=C1CCN(N2C(=O)c3ccc(CN4CCN(c5ncnc6ccsc56)CC4)cc3C2=O)C(=O)N1 [GT-08452, 2-(2,4-dioxotetrahydropyrimidin-1(2H)-yl)-5-((4-(thieno[3,2-d]pyrimidin-4-yl)piperazin-1-yl)methyl)isoindoline-1,3-dione]
substrate protein remaining % IKZF2 (IKZF2): B (80%< substrate protein remaining %≤ 100%)
substrate protein remaining % IKZF1 (IKZF1): A (0% ≤ substrate protein remaining % ≤ 80%)
substrate protein remaining % IKZF3 (IKZF3): A (0% ≤ substrate protein remaining % ≤ 80%)
substrate protein remaining % WEE1 (WEE1): A (0% ≤ substrate protein remaining % ≤ 80%)
substrate protein remaining % CK1α (CK1α): A (0% ≤ substrate protein remaining % ≤ 80%)
substrate protein remaining % GSPT1 (GSPT1): B (80%< substrate protein remaining %≤ 100%)
inhibition at 0.01 µM (H292): 20 to 40%
inhibition at 0.5 µM (H292): 5 to 10%

Cc1nc(N2CCN(Cc3ccc4c(c3)C(=O)N(N3CCC(=O)NC3=O)C4=O)CC2)c2c3c(sc2n1)CCCC3 [GT-08101, 2-(2,4-dioxotetrahydropyrimidin-1(2H)-yl)-5-((4-(2-methyl-5,6,7,8-tetrahydrobenzo[4,5]thieno[2,3-d]pyrimidin-4-yl)piperazin-1-yl)methyl)isoindoline-1,3-dione]
inhibition at 0.01 µM (MV-4-11): 18 to 25%
inhibition at 0.5 µM (MV-4-11): 25 to 30%

O=C1CCN(N2C(=O)c3ccc(CN4CCN(c5nc(Cl)nc6ccsc56)CC4)cc3C2=O)C(=O)N1 [GT-08453, 5-((4-(2-chlorothieno[3,2-d]pyrimidin-4-yl)piperazin-1-yl)methyl)-2-(2,4-dioxotetrahydropyrimidin-1(2H)-yl)isoindoline-1,3-dione]
substrate protein remaining % IKZF2 (IKZF2): B (80%< substrate protein remaining %≤ 100%)
substrate protein remaining % IKZF1 (IKZF1): A (0% ≤ substrate protein remaining % ≤ 80%)
substrate protein remaining % IKZF3 (IKZF3): A (0% ≤ substrate protein remaining % ≤ 80%)
substrate protein remaining % WEE1 (WEE1): B (80%< substrate protein remaining %≤ 100%)
substrate protein remaining % CK1α (CK1α): A (0% ≤ substrate protein remaining % ≤ 80%)
substrate protein remaining % GSPT1 (GSPT1): A (0% ≤ substrate protein remaining % ≤ 80%)
inhibition at 0.01 µM (H292): 20 to 40%
inhibition at 0.5 µM (H292): 10 to 15%

O=C1CCN(N2Cc3cc(CN4CCN(c5ncnc6ccsc56)CC4)ccc3C2=O)C(=O)N1 [GT-08443, 1-(1-oxo-5-((4-(thieno[3,2-d]pyrimidin-4-yl)piperazin-1-yl)methyl)isoindolin-2-yl)dihydropyrimidine-2,4(1H,3H)-dione]
substrate protein remaining % IKZF2 (IKZF2): B (80%< substrate protein remaining %≤ 100%)
substrate protein remaining % IKZF1 (IKZF1): B (80%< substrate protein remaining %≤ 100%)
substrate protein remaining % IKZF3 (IKZF3): B (80%< substrate protein remaining %≤ 100%)
substrate protein remaining % WEE1 (WEE1): A (0% ≤ substrate protein remaining % ≤ 80%)
substrate protein remaining % CK1α (CK1α): B (80%< substrate protein remaining %≤ 100%)
substrate protein remaining % GSPT1 (GSPT1): B (80%< substrate protein remaining %≤ 100%)
inhibition at 0.01 µM (H292): 20 to 40%
inhibition at 0.5 µM (H292): 40 to 60%

O=C1CCN(N2Cc3cc(CN4CCN(c5nc(Cl)nc6c5SCC6)CC4)ccc3C2=O)C(=O)N1 [GT-08439, 1-(5-((4-(2-chloro-6,7-dihydrothieno[3,2-d]pyrimidin-4-yl)piperazin-1-yl)methyl)-1-oxoisoindolin-2-yl)dihydropyrimidine-2,4(1H,3H)-dione]
substrate protein remaining % IKZF2 (IKZF2): B (80%< substrate protein remaining %≤ 100%)
substrate protein remaining % IKZF1 (IKZF1): A (0% ≤ substrate protein remaining % ≤ 80%)
substrate protein remaining % IKZF3 (IKZF3): A (0% ≤ substrate protein remaining % ≤ 80%)
substrate protein remaining % WEE1 (WEE1): A (0% ≤ substrate protein remaining % ≤ 80%)
substrate protein remaining % CK1α (CK1α): B (80%< substrate protein remaining %≤ 100%)
substrate protein remaining % GSPT1 (GSPT1): A (0% ≤ substrate protein remaining % ≤ 80%)
inhibition at 0.01 µM (H292): 20 to 40%
inhibition at 0.5 µM (H292): 20 to 40%

O=C1CCN(N2C(=O)c3ccc(CN4CCN(c5nc(N6CCOCC6)nc6ccsc56)CC4)cc3C2=O)C(=O)N1 [GT-08455, 2-(2,4-dioxotetrahydropyrimidin-1(2H)-yl)-5-((4-(2-morpholinothieno[3,2-d]pyrimidin-4-yl)piperazin-1-yl)methyl)isoindoline-1,3-dione]
substrate protein remaining % IKZF2 (IKZF2): B (80%< substrate protein remaining %≤ 100%)
substrate protein remaining % IKZF1 (IKZF1): B (80%< substrate protein remaining %≤ 100%)
substrate protein remaining % IKZF3 (IKZF3): A (0% ≤ substrate protein remaining % ≤ 80%)
substrate protein remaining % WEE1 (WEE1): B (80%< substrate protein remaining %≤ 100%)
substrate protein remaining % CK1α (CK1α): A (0% ≤ substrate protein remaining % ≤ 80%)
substrate protein remaining % GSPT1 (GSPT1): A (0% ≤ substrate protein remaining % ≤ 80%)
inhibition at 0.01 µM (H292): 5 to 10%
inhibition at 0.5 µM (H292): 15 to 20%
